Data as given in US11945798B2, “Substituted aminopyridine compounds as EGFR inhibitors” (YUHAN CORPORATION, priority 2021, dated 2024).
Read-outs that look alike come from different tables or passages of the source.

Tests used:
EGFR L858R/T790M/C797S = EGFR L858R/T790M/C797S (Homo sapiens, UniProt P00533, C797S/L858R/T790M); test: Biochemical EGFR kinase assay (Lance Ultra TR-FRET), L858R/T790M/C797S
Procedure, shortened: (§1)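 Kinase activity is measured by TR-FRET phosphopeptide detection. Compounds span 0.003 μM to 10 μM; the 1 h reaction at room temperature is quenched with EDTA, then labelled antibody (2 nM) is incubated 60 min before reading.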

EGFR del19/T790M/C797S = EGFR del19/T790M/C797S (Homo sapiens, UniProt P00533, C797S/DEL746-750/T790M); test: Biochemical EGFR kinase assay (Lance Ultra TR-FRET), del19/T790M/C797S
Sequence of EGFR del19/T790M/C797S (P00533 with tags, fused parts or gaps DEL746-750/T790M/C797S): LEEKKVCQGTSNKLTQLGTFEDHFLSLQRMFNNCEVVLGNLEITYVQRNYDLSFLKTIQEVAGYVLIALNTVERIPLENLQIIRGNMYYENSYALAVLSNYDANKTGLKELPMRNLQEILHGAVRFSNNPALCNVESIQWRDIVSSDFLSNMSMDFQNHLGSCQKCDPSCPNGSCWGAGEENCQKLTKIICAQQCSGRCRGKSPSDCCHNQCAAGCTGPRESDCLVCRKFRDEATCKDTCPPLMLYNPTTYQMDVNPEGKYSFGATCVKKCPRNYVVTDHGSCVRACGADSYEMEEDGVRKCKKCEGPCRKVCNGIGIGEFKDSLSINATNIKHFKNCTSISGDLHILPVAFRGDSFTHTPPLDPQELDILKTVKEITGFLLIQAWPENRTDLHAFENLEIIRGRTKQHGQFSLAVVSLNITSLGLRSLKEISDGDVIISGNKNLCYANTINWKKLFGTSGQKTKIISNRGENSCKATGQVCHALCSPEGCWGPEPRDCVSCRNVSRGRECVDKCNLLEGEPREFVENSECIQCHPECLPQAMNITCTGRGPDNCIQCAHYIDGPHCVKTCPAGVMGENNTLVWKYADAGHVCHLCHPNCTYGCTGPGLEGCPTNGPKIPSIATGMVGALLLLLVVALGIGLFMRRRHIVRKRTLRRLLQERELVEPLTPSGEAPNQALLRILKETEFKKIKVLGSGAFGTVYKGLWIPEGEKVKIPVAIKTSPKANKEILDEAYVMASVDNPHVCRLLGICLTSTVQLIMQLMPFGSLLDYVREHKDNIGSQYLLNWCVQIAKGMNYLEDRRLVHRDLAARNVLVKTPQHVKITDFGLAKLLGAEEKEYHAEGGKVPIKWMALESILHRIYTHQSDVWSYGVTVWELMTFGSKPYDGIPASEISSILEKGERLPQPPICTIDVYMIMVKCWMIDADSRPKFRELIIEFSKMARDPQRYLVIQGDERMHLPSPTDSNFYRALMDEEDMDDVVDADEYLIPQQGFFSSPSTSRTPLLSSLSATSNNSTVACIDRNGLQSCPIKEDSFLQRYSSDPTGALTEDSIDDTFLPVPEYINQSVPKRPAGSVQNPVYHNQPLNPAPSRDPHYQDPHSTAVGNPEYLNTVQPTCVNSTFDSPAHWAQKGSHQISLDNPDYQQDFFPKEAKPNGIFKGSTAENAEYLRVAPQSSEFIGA
Procedure, shortened: as §1

EGFR wildtype (WT) = EGFR wildtype (WT) (Homo sapiens, UniProt P00533); test: Biochemical EGFR kinase assay (Lance Ultra TR-FRET), wildtype
Procedure, shortened: as §1

EGFR del19/C797S = EGFR del19/C797S (Homo sapiens, UniProt P00533, C797S/DEL746-750); test: Biochemical EGFR kinase assay (Lance Ultra TR-FRET), del19/C797S
Sequence of EGFR del19/C797S (P00533 with tags, fused parts or gaps DEL746-750/C797S): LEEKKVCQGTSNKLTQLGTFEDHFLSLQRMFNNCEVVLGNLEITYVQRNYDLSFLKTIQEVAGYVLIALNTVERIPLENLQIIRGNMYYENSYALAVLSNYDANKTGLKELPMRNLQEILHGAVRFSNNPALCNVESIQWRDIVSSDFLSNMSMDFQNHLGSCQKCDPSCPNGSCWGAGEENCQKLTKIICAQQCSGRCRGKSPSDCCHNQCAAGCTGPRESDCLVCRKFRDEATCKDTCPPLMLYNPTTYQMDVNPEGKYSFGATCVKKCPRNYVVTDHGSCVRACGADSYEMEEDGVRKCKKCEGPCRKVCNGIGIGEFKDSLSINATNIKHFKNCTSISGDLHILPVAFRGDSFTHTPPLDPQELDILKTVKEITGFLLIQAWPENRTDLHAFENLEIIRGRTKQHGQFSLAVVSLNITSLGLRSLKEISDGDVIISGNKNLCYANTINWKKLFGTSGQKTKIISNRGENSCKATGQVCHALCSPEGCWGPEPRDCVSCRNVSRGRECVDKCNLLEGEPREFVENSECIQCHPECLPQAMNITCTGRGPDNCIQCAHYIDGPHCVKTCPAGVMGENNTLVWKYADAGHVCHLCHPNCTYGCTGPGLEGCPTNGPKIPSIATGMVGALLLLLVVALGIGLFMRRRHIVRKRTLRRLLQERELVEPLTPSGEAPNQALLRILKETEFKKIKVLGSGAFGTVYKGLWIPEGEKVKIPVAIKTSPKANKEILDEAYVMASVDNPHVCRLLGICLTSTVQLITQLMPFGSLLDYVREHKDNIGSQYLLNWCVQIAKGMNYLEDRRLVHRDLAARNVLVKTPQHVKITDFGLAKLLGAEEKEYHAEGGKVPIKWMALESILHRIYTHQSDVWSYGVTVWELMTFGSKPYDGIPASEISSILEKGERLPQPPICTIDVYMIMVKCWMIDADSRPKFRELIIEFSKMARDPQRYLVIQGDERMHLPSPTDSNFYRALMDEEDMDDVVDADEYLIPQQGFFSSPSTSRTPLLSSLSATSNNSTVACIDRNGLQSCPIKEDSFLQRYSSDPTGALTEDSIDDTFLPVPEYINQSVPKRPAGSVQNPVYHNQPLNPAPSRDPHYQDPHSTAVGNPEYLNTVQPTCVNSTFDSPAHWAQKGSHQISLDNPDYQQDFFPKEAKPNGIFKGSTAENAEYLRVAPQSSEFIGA
Procedure, shortened: as §1

EGFR L858R/C797S = EGFR L858R/C797S (Homo sapiens, UniProt P00533, C797S/L858R); test: Biochemical EGFR kinase assay (Lance Ultra TR-FRET), L858R/C797S
Sequence of EGFR L858R/C797S (P00533 25-1210 C797S/L858R): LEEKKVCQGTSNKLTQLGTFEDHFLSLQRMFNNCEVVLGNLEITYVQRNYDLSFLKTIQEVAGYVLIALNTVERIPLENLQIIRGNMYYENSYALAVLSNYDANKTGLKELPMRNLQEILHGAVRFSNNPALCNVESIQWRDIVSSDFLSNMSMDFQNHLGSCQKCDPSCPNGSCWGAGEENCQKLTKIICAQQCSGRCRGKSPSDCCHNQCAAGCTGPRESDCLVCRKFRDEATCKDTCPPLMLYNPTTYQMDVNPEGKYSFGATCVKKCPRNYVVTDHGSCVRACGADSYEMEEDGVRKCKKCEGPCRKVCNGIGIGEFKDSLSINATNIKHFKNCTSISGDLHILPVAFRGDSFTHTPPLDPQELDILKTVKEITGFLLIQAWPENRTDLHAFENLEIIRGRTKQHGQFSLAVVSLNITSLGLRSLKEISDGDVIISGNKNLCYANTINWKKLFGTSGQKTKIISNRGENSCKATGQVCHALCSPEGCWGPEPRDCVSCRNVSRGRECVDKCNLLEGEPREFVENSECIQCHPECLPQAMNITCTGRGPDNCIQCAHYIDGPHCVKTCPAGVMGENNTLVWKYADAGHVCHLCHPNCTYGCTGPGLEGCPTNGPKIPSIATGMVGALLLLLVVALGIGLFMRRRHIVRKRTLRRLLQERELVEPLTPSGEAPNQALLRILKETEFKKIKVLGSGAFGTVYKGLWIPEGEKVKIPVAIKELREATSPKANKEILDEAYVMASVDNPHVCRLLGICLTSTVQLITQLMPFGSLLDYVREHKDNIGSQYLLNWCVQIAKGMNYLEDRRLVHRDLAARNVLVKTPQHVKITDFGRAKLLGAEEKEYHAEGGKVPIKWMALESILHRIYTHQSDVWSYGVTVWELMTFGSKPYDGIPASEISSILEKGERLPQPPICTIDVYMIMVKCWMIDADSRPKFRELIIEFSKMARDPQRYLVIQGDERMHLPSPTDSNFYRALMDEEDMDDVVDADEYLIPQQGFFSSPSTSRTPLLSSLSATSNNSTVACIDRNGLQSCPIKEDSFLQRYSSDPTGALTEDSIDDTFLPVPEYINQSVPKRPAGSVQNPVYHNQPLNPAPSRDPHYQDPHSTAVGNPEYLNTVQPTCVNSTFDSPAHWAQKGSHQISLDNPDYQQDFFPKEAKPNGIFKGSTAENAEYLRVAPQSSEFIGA
Description: Biochemical EGFR kinase assays were conducted using Lance Ultra time-resolved fluorescence resonance energy transfer (TR-FRET) technology from Perkin-Elmer. Compounds of the invention were initially diluted to 20 mM in 100% DMSO for storage and made into kinase buffer solution to create a compound concentration ranging from 0.003 μM and 10 μM.
Each kinase reactions were incubated at room temperature for 1 hour and then stopped by the addition of 4 μL of stop solution (10 mM EDTA). The specific Europium-labeled-anti-phosphopeptide antibody (PerkinElmer, AD0069) diluted in LANCE detection buffer was then added to a final concentration of 2 nM. After 60 minutes incubation at room temperature the LANCE signal was measured on an EnVision Multilabel Reader (Perkin-Elmer). Excitation wavelength was set at 320 nm and emission monitored at 615 nm (donor) and 665 nm (acceptor). The IC50 values were determined using GraphPad prism software (GraphPad Software, Inc., San Diego, CA, USA).

[1] = IC50 L858R/T790M/C797S (nM) 100 μM ATP, 100 μM ATP
[2] = Km ATP, read-out: IC50 L858R/T790M/C797S (nM) Km ATP
[3] = IC50 del19/T790M/C797S (nM) 100 μM ATP, 100 μM ATP
[4] = Km ATP, read-out: IC50 del19/T790M/C797S (nM) Km ATP
[5] = IC50 WT (nM) 100 μM ATP, 100 μM ATP
[6] = Km ATP, read-out: IC50 WT (nM) Km ATP
[7] = IC50 del19/C797S (nM) 100 μM ATP, 100 μM ATP
[8] = Km ATP, read-out: IC50 del19/C797S (nM) Km ATP
[9] = IC50 L858R/C797S (nM) 100 μM ATP, 100 μM ATP
[10] = Km ATP, read-out: IC50 L858R/C797S (nM) Km ATP

Sequence of EGFR L858R/T790M/C797S (P00533 25-1210 T790M/C797S/L858R): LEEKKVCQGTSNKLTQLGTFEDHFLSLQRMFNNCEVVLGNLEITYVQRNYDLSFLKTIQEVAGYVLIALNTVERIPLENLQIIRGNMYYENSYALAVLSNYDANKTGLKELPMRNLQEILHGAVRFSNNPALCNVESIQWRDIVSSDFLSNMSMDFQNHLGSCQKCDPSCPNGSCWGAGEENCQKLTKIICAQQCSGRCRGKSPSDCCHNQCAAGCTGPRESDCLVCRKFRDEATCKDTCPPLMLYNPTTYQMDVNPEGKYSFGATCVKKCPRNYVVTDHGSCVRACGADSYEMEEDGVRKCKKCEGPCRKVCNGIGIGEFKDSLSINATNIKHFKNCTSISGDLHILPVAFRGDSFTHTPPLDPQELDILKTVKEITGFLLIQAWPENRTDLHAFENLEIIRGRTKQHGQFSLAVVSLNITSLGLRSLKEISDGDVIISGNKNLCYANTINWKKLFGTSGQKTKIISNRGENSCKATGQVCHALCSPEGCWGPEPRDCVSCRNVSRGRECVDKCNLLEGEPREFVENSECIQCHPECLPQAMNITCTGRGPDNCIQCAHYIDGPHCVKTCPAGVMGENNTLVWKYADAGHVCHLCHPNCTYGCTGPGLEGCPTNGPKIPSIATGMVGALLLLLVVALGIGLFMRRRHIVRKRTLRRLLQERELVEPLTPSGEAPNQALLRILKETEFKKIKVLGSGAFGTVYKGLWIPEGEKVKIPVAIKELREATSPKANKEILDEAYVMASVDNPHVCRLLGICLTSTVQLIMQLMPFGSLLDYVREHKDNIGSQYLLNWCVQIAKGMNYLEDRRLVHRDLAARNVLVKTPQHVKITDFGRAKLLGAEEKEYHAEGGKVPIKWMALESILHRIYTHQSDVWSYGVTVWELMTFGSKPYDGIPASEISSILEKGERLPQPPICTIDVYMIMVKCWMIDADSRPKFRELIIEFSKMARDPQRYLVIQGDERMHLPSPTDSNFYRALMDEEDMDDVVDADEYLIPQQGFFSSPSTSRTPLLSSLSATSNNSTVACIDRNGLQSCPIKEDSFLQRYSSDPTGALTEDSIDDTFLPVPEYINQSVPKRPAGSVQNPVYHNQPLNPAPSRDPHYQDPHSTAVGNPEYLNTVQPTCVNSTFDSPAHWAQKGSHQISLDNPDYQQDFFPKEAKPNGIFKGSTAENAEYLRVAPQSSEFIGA

| SMILES | IC50 (EGFR L858R/T790M/C797S; [1]) [nM] | IC50 (EGFR L858R/T790M/C797S; [2]) [nM] | IC50 (EGFR del19/T790M/C797S; [3]) [nM] | IC50 (EGFR del19/T790M/C797S; [4]) [nM] | IC50 (EGFR wildtype (WT); [5]) [nM] | IC50 (EGFR wildtype (WT); [6]) [nM] | IC50 (EGFR del19/C797S; [7]) [nM] | IC50 (EGFR del19/C797S; [8]) [nM] | IC50 (EGFR L858R/C797S; [9]) [nM] | IC50 (EGFR L858R/C797S; [10]) [nM] |
| --- | --- | --- | --- | --- | --- | --- | --- | --- | --- | --- |
| CN(C)CCN1CCC(Nc2cc(Nc3ccnc(-c4cnn(S(=O)(=O)C5CC5)c4)n3)ncc2C(=O)C2CC2)CC1 [Example 37, Cyclopropyl(6-((2-(1-(cyclopropylsulfonyl)-1H-pyrazol-4-yl)pyrimidin-4-yl)amino)-4-((1-(2-(dimethylamino)ethyl)piperidin-4-yl)amino)pyridin-3-yl)methanone] | 2 | 0.4 | 1.2 | 1 | > 10000 | 113 | 79.9 | 36.9 | 168 | 9.7 |
| O=C(c1cnc(Nc2ccnc(-c3cnn(S(=O)(=O)C4CC4)c3)n2)cc1NC1CCCN(CCF)C1)C1CC1 (stereo not drawn) [Example 39, Cyclopropyl(6-((2-(1-(cyclopropylsulfonyl)-1H-pyrazol-4-yl)pyrimidin-4-yl)amino)-4-((1-(2-fluoroethyl)piperidin-3-yl)amino)pyridin-3-yl)methanone] | 5.2 | 1.9 | 3.8 | 2.9 | > 10000 | 470 | 38.8 | 38.4 | 451 | 19 |
| C[C@]1(O)CC[C@@H](Nc2cc(Nc3ccnc(-c4cnn(S(=O)(=O)C5CC5)c4)n3)ncc2C(=O)CC2CCOCC2)CC1 [Example 40, 1-(6-((2-(1-(Cyclopropylsulfonyl)-1H-pyrazol-4-yl)pyrimidin-4-yl)amino)-4-(((1s,4s)-4-hydroxy-4-methylcyclohexyl)amino)pyridin-3-yl)-2-(tetrahydro-2H-pyran-4-yl)ethan-1-one] |  | 0.2 | 0.6 | 0.4 | > 10000 | 64.5 | 16.3 | 3.1 | 189 | 5.1 |
| CC(=O)c1cnc(Nc2ccnc(-c3cnn(S(=O)(=O)C4CC4)c3)n2)cc1NC(C)(C)C(C)O (stereo not drawn) [Example 46, 1-(6-((2-(1-(Cyclopropylsulfonyl)-1H-pyrazol-4-yl)pyrimidin-4-yl)amino)-4-((3-hydroxy-2-methylbutan-2-yl)amino)pyridin-3-yl)ethan-1-one] |  | 7.3 |  | 0.6 |  | 1410 |  | 290 |  | 471 |
| C[C@]1(O)CC[C@@H](Nc2cc(Nc3ccnc(-c4cnn(S(=O)(=O)C5CC5)c4)n3)ncc2C(=O)C(F)F)CC1 [Example 48, 1-(6-((2-(1-(Cyclopropylsulfonyl)-1H-pyrazol-4-yl)pyrimidin-4-yl)amino)-4-(((1s,4s)-4-hydroxy-4-methylcyclohexyl)amino)pyridin-3-yl)-2,2-difluoroethan-1-one] | 2.4 | 0.5 | 1 | 0.8 | > 10000 | 553 | 4.4 | 15.7 | 110 | 26.2 |
| O=C(c1cnc(Nc2ccnc(-c3cnn(S(=O)(=O)C4CC4)c3)n2)cc1NC1CCC(NCCO)CC1)C1CC1 (stereo not drawn) [Example 52, Cyclopropyl(6-((2-(1-(cyclopropylsulfonyl)-1H-pyrazol-4-yl)pyrimidin-4-yl)amino)-4-((4-((2-hydroxyethyl)amino)cyclohexyl)amino)pyridin-3-yl)methanone] | 1.8 |  | 1.1 |  | > 10000 |  | 26 |  | 15.2 |  |
| O=C(c1cnc(Nc2ccnc(-c3cnn(S(=O)(=O)C4CC4)c3)n2)cc1NC1CCC(NCCN2CCCCC2)CC1)C1CC1 (stereo not drawn) [Example 56, Cyclopropyl(6-((2-(1-(cyclopropylsulfonyl)-1H-pyrazol-4-yl)pyrimidin-4-yl)amino)-4-((4-((2-(piperidin-1-yl)ethyl)amino)cyclohexyl)amino)pyridin-3-yl)methanone] | 1.2 |  | 1 |  | 6300 |  | 7.6 |  | 12.2 |  |

Other lines, results leading:

| IC50 (EGFR L858R/T790M/C797S; [1]) [nM] | IC50 (EGFR L858R/T790M/C797S; [2]) [nM] | IC50 (EGFR del19/T790M/C797S; [3]) [nM] | IC50 (EGFR del19/T790M/C797S; [4]) [nM] | IC50 (EGFR wildtype (WT); [5]) [nM] | IC50 (EGFR wildtype (WT); [6]) [nM] | IC50 (EGFR del19/C797S; [7]) [nM] | IC50 (EGFR del19/C797S; [8]) [nM] | IC50 (EGFR L858R/C797S; [9]) [nM] | IC50 (EGFR L858R/C797S; [10]) [nM] | SMILES |
| --- | --- | --- | --- | --- | --- | --- | --- | --- | --- | --- |
| 9.9 |  | 2.7 |  | > 10000 |  | 231 |  | 200 |  | O=C(c1cnc(Nc2ccnc(-c3cnn(S(=O)(=O)C4CC4)c3)n2)cc1NC1CCN(C2COC2)CC1)C1CC1 [Example 38, Cyclopropyl(6-((2-(1-(cyclopropylsulfonyl)-1H-pyrazol-4-yl)pyrimidin-4-yl)amino)-4-((1-(oxetan-3-yl)piperidin-4-yl)amino)pyridin-3-yl)methanone] |
|  | 0.5 |  | 1.3 |  | 64.1 |  | 10.5 |  | 24 | O=C(c1cnc(Nc2ccnc(-c3cnn(S(=O)(=O)C4CC4)c3)n2)cc1NC[C@H]1CC[C@H](Cn2ccnc2)CC1)C1CC1 [Example 43, (4-((((1r,4r)-4-((1H-Imidazol-1-yl)methyl)cyclohexyl)methyl)amino)-6-((2-(1-(cyclopropylsulfonyl)-1H-pyrazol-4-yl)pyrimidin-4-yl)amino)pyridin-3-yl)(cyclopropyl)methanone] |
|  | 0.6 |  | 0.1 |  | 145 |  | 10.5 |  | 51.3 | CC(=O)c1cnc(Nc2ccnc(-c3cnn(S(=O)(=O)C4CC4)c3)n2)cc1NC1CCC(CO)C1 (stereo not drawn) [Example 47, 1-(6-((2-(1-Cyclopropylsulfonylpyrazol-4-yl)pyrimidin-4-yl)amino)-4-((3-(hydroxymethyl)cyclopentyl)amino)-3-pyridyl)ethanone] |
| 0.7 | 0.2 | 0.4 | 0.4 | > 10000 | 181 | 1.2 | 2.6 | 21.1 | 4 | O=C(c1cnc(Nc2ccnc(-c3cnn(S(=O)(=O)C4CC4)c3)n2)cc1N[C@H]1CC[C@@H](CO)CC1)C(F)F [Example 49, 1-(6-((2-(1-(Cyclopropylsulfonyl)-1H-pyrazol-4-yl)pyrimidin-4-yl)amino)-4-(((1s,4s)-4-(hydroxymethyl)cyclohexyl)amino)pyridin-3-yl)-2,2-difluoroethan-1-one] |
| 1.9 |  | 1 |  | > 10000 |  | 35.7 |  | 85 |  | O=C(c1cnc(Nc2ccnc(-c3cnn(S(=O)(=O)C4CC4)c3)n2)cc1NC1CCC(NCCN2CC(F)C2)CC1)C1CC1 (stereo not drawn) [Example 55, Cyclopropyl(6-((2-(1-(cyclopropylsulfonyl)-1H-pyrazol-4-yl)pyrimidin-4-yl)amino)-4-((4-((2-(3-fluoroazetidin-1-yl)ethyl)amino)cyclohexyl)amino)pyridin-3-yl)methanone] |
| 1 |  | 0.6 |  | > 10000 |  | 18 |  | 10.7 |  | CN(C)C1CCN(CCNC2CCC(Nc3cc(Nc4ccnc(-c5cnn(S(=O)(=O)C6CC6)c5)n4)ncc3C(=O)C3CC3)CC2)CC1 (stereo not drawn) [Example 57, Cyclopropyl(6-((2-(1-(cyclopropylsulfonyl)-1H-pyrazol-4-yl)pyrimidin-4-yl)amino)-4-((4-((2-(4-(dimethylamino)piperidin-1-yl)ethyl)amino)cyclohexyl)amino)pyridin-3-yl)methanone] |
|  | 0.1 |  | 0.1 |  | 3.6 |  | 0.4 |  | 2.4 | CN(C)C[C@H]1CC[C@H](CNc2cc(Nc3ccnc(-c4cnn(S(=O)(=O)C5CC5)c4)n3)ncc2C(=O)C2CC2)CC1 [Example 58, Cyclopropyl(6-((2-(1-(cyclopropylsulfonyl)-1H-pyrazol-4-yl)pyrimidin-4-yl)amino)-4-((((1r,4r)-4-((dimethylamino)methyl)cyclohexyl)methyl)amino)pyridin-3-yl)methanone] |
|  | 5.7 |  | 1.2 |  | 136 |  | 207 |  | 67.9 | CN(C)C[C@H]1CC[C@H](CNc2cc(Nc3ccnc(-c4cn[nH]c4)n3)ncc2C(=O)C2CC2)CC1 [Example 59, (6-((2-(1H-Pyrazol-4-yl)pyrimidin-4-yl)amino)-4-((((1r,4r)-4-((dimethylamino)methyl)cyclohexyl)methyl)amino)pyridin-3-yl)(cyclopropyl)methanone] |
